For 1 molecule, Kd results are on record in paper PMC10359459 (Nucleic Acids Research, 2023).

The assay deals with T1, BldD (Saccharopolyspora erythraea, UniProt A4FBF9).
T1 sequence (A4FBF9 1-162): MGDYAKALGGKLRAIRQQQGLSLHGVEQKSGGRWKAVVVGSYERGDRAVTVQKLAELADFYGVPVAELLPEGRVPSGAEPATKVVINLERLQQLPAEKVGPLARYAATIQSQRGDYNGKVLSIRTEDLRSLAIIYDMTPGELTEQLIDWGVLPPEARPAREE
Briefly: isothermal titration calorimetry. The class given is binding. A general note: ITC needs no label: the signal is the heat of the interaction.

One may read the Kd as a measure of binding affinity in units of concentration. Low readings indicate higher affinity, high ones lower affinity.

Take `Nc1nc2c(ncn2[C@@H]2O[C@@H]3CO[P@](=O)(O)O[C@H]4[C@@H](O)[C@H](n5cnc6c(=O)[nH]c(N)nc65)O[C@@H]4CO[P@](=O)(O)O[C@H]3[C@H]2O)c(=O)[nH]1` [c-di-GMP]: the Kd came out at 570 nM.
